Assay results published in patent US6071966A, “1-amino-alkylcyclohexane NMDA receptor antagonists” (Merz + Co. GmbH & Co., priority 1998, dated 2000).
pIC50: −log10 of the molar value. Structures can show the parent of a compound that is named as a salt.

Key:
[1] = Traction reflex test (myorelaxant action); assay type: in vivo; details: mouse, traction reflex versus mes, ip; mice, i.p.; Table 8; read-out: TI Tract. (ED50 traction reflex impairment / ED50 MES)
Procedure: (§1) NMR female mice (18-28 g) housed 5 per cage were used for the maximal electroshock (MES) and motor impairment tests. […] All compounds were dissolved in 0.9% saline.
(§2) The MES test was performed together with tests for myorelaxant action (traction reflex) and motor coordination (rotarod). For the traction reflex test mice were placed with their forepaws on a horizontal rod and were required to place all 4 paws on the wire within 10 seconds. To test ataxia (motor coordination) mice were placed on rotarod (5 rpm) and were required to remain on the rod for 1 minute. […] These tests were followed by MES (100 Hz, 0.5 second shock duration, 50 mA shock intensity, 0.9 ms impulse duration, Ugo Basile) applied through corneal electrodes. The presence of tonic convulsions was scored (tonic extension of hind paws with minimum angle to the body of 90°). The aim was to obtain ED50 s for all parameters scored (anticonvulsive activity and motor side effects) with use of the Litchfield Wilcoxon test for quantal dose responses. Division of the ED50 for side effects (ataxia or myorelaxation) by the ED50 for antagonism of electroshock convulsions was used as a therapeutic index (TI). […]

[2] = Rotarod test (motor coordination, ataxia); assay type: in vivo; details: mouse, ip, mice, i.p., Table 8, read-out: TI Rot. (ED50 rotarod failure / ED50 MES)
Procedure: All compounds were dissolved in 0.9% saline.
(§3) The MES test was performed together with tests for myorelaxant action (traction reflex) and motor coordination (rotarod). For the traction reflex test mice were placed with their forepaws on a horizontal rod and were required to place all 4 paws on the wire within 10 seconds. To test ataxia (motor coordination) mice were placed on rotarod (5 rpm) and were required to remain on the rod for 1 minute. […] These tests were followed by MES (100 Hz, 0.5 second shock duration, 50 mA shock intensity, 0.9 ms impulse duration, Ugo Basile) applied through corneal electrodes. The presence of tonic convulsions was scored (tonic extension of hind paws with minimum angle to the body of 90°). The aim was to obtain ED50 s for all parameters scored (anticonvulsive activity and motor side effects) with use of the Litchfield Wilcoxon test for quantal dose responses. Division of the ED50 for side effects (ataxia or myorelaxation) by the ED50 for antagonism of electroshock convulsions was used as a therapeutic index (TI).
(§4) Pearson product moment correlation analysis (Sigma Stat, Jandel Scientific) was used to compare in vitro potencies and in vivo anticonvulsant activity.

NMDA receptor [3] = experiment: [3H]-(+)-MK-801 receptor binding to rat cortical membranes; details: read-out: [3H]MK-801 IC50, [3H]-(+)-MK-801 5 nM, Table 7
Procedure: Male Sprague-Dawley rats (200-250 g) were decapitated and their brains were removed rapidly. The cortex was dissected and homogenized in 20 volumes of ice-cold 0.32 M sucrose using a glass-Teflon homogenizer. The homogenate was centrifuged at 1000×g for 10 minutes. The pellet was discarded and the supernatant centrifuged at 20,000×g for 20 minutes. The resulting pellet was re-suspended in 20 volumes of distilled water and centrifuged for 20 minutes at 8000×g. Then the supernatant and the buffy coat were centrifuged three times (48,000×g for 20 minutes) in the presence of 50 mM Tris-HCl, pH 8.0. All centrifugation steps were carried out at 4° C. After resuspension in 5 volumes of 50 mM Tris-HCl, pH 8.0 the membrane suspension was frozen rapidly at -80° C. On the day of assay the membranes were thawed and washed four times by resuspension in 50 mM Tris-HCl, pH 8.0 and centrifugation at 48,000×g for 20 minutes. The final pellet was suspended in assay buffer. The amount of protein in the final membrane preparation was determined according to the method of Lowry with some modifications. The final protein concentration used for our studies was between 250-500 μg/ml.
Membranes were re-suspended and incubated in 50 mM Tris-HCl, pH 8.0. […] Incubations were terminated using a Millipore filter system. The samples were rinsed three times with 2.5 ml ice cold assay buffer over glass fiber filters obtained from Schleicher & Schuell under a constant vacuum. Filtration was performed as rapidly as possible. Following separation and rinse, the filters were placed into scintillation liquid (5 ml; Ultima Gold) and radioactivity retained on the filters was determined with a conventional liquid scintillation counter (Hewlett Packard, Liquid Scintillation Analyser).
IC50 s in patch clamp, excitotoxicity, and binding studies were calculated according to the four parameter alogistic equation using the Grafit computer program (Erithacus Software, England). Ki value for binding studies were then determined according to Cheng and Prusoff. Binding values presented are means ±SEM of 3-5 determinations (each performed in duplicate).

[4] = i.p.; Table 8
[5] = tested on: MES-induced convulsions in mice; experiment: Anticonvulsive activity: maximal electroshock (MES) test; assay type: in vivo; details: for ED50: Mus musculus, ip, 0.5 h; for MES ED50: i.p., Table 8, 30 min
Procedure: as §1, §3, §4

traction reflex in mice = experiment: Traction reflex test (myorelaxant action); assay type: in vivo; details: i.p., Table 8
Procedure: as §1, §2

NMDA receptor [6] = details: clinical / human use; cited from earlier work

Work on `C[C@@H]1CC(C)(C)C[C@@](C)(N)C1` (relative stereo) [Mrz 2/607] yielded a selectivity ratio [1] of 1.3 and a selectivity ratio ([2]; rotarod versus mes) of 1.7.
`CCC[C@@]1(C)C[C@H](C)C[C@@](C)(N)C1` (relative stereo) [Mrz 2/618] showed a selectivity ratio [1] of 1.2 and a selectivity ratio ([2]; rotarod versus mes) of 1.1.
`CCC[C@]1(C)C[C@@H](C)C[C@@](C)(N)C1` (relative stereo) [Mrz 2/619] showed a selectivity ratio [1] of 1 and a selectivity ratio ([2]; rotarod versus mes) of 1.
`CC[C@@]1(C)C[C@H](C)C[C@@](C)(N)C1` (relative stereo) [Mrz 2/622] showed a pIC50 (NMDA receptor [3]) of 3.82, a selectivity ratio [1] of 1.1 and a selectivity ratio ([2]; rotarod versus mes) of 1.7.
Compound `CC[C@]1(C)C[C@@H](C)C[C@@](C)(N)C1` (relative stereo) [Mrz 2/624] has a selectivity ratio [1] of 0.9 and a selectivity ratio ([2]; rotarod versus mes) of 1.
In the case of `C[C@@H]1CCC[C@@](C)(N)C1` (relative stereo) [Mrz 2/625], the selectivity ratio [1] was 0.5 and the selectivity ratio ([2]; rotarod versus mes) was 1.2.
In the case of `CCC[C@@H]1CCC[C@@](C)(N)C1` (relative stereo) [Mrz 2/627], the selectivity ratio [1] was 0.8 and the selectivity ratio ([2]; rotarod versus mes) was 1.
Compound `CCC[C@H]1CCC[C@@](C)(N)C1` (relative stereo) [Mrz 2/628] has a selectivity ratio [1] of 0.8 and a selectivity ratio ([2]; rotarod versus mes) of 1.6.
With `CC[C@@H]1CCC[C@@](C)(N)C1` (relative stereo) [Mrz 2/629] the selectivity ratio [1] was 0.9 and the selectivity ratio ([2]; rotarod versus mes) was 0.9.
In the case of `CC[C@H]1CCC[C@@](C)(N)C1` (relative stereo) [Mrz 2/630], the pIC50 (NMDA receptor [3]) was 3.35 and the “Min Lethality” value [4] was over 30 mg/kg.
For `C[C@H]1CCC[C@@](C)(N)C1` (relative stereo) [Mrz 2/631], the “Min Lethality” value [4] was over 30 mg/kg.
`CC[C@H]1CC(C)(C)C[C@@](C)(N)C1` (relative stereo) [Mrz 2/632] showed a selectivity ratio [1] of 2.7 and a selectivity ratio ([2]; rotarod versus mes) of 3.4.
Work on `CC[C@@H]1CC(C)(C)C[C@@](C)(N)C1` (relative stereo) [Mrz 2/633] yielded a selectivity ratio [1] of 2.4 and a selectivity ratio ([2]; rotarod versus mes) of 3.
For `CCC[C@H]1CC(C)(C)C[C@@](C)(N)C1` (relative stereo) [Mrz 2/634], the ED50 ([5]; Table 8) was over 30 mg/kg, the ED50 ([5]; i.p. 30 min before, Table 7) was over 30 mg/kg and the “Min Lethality” value [4] was over 30 mg/kg.
In the case of `CCC[C@@H]1CC(C)(C)C[C@@](C)(N)C1` (relative stereo) [Mrz 2/635], the selectivity ratio [1] was 1.3 and the selectivity ratio ([2]; rotarod versus mes) was 1.4.
In the case of `C[C@H]1CC(C)(C)C[C@@](C)(N)C1` (relative stereo) [Mrz 2/643], the ED50 ([5]; i.p. 30 min before, Table 7) was 16.6 mg/kg and the “TI Tract. (ED50 traction reflex impairment / ED50 MES)” value (traction reflex in mice) was 1.3.
For `NC12CC3CC(CC(C3)C1)C2` [Amantadine, reference compound], the “MES ED50” value [5] is given as 184.0 mg/kg i.p and the side effects (NMDA receptor [6]) is given as “rarely produce side effects at the therapeutic doses”.
For `C[C@]12N[C@H](Cc3ccccc31)c1ccccc12` [MK-801, (+)-5-methyl-10,11-dihydro-5H-dibenzocyclohepten-5,10-imine maleate, reference compound], the “MES ED50” value [5] is listed as 0.16 mg/kg i.p and the side effects (NMDA receptor [6]) is listed as “some psychotropic side effects were apparent at therapeutic doses”.
In the case of `C[C@@H]1C[C@H](C)C[C@@](C)(N)C1` [MRZ 2/680, 1-amino-1(trans),3(trans),5-trimethylcyclohexane], the “TI Tract. (ED50 traction reflex impairment / ED50 MES)” value (traction reflex in mice) was 0.7.
For `C[C@@H]1C[C@H](C)C[C@](C)(N)C1` [MRZ 2/681, 1-amino-1(cis),3(cis),5-trimethylcyclohexane], the “TI Tract. (ED50 traction reflex impairment / ED50 MES)” value (traction reflex in mice) was 2.1 and the selectivity ratio ([2]; rotarod versus mes) was 5.3.
With `CC[C@H]1CC(C)(C)C[C@](C)(N)C1` [MRZ 2/682, 1-amino-(1R,5S)trans-3-ethyl-1,5,5-trimethylcyclohexane] the “TI Tract. (ED50 traction reflex impairment / ED50 MES)” value (traction reflex in mice) was 2.7.
With `CC[C@H]1CC(C)(C)C[C@@](C)(N)C1` [MRZ 2/683, 1-amino-(1S,5S)cis-3-ethyl-1,5,5-trimethylcyclohexane] the “TI Tract. (ED50 traction reflex impairment / ED50 MES)” value (traction reflex in mice) was 2.7.
In the case of `CC12CC3CC(C)(C1)CC(N)(C3)C2` [Memantine, reference compound], the “TI Tract. (ED50 traction reflex impairment / ED50 MES)” value (traction reflex in mice) is given as 2.9 and the side effects (NMDA receptor [6]) is given as “rarely produce side effects at the therapeutic doses”.
In the case of `CC1(C)CC(N)CC(C)(C)C1` [Mrz 2/557], the selectivity ratio [1] was 1 and the selectivity ratio ([2]; rotarod versus mes) was 1.4.
In the case of `CC1(C)CC(CN)CC(C)(C)C1.Cl` [Mrz 2/580, 3,3,5,5-tetramethylcyclohexylmethylamine hydrochloride], the selectivity ratio [1] was 1.6, the selectivity ratio ([2]; rotarod versus mes) was 1.3 and the “Min Lethality” value [4] was 50 mg/kg.
`CCC1(N)CC(C)(C)CC(C)(C)C1` [Mrz 2/600, 1-amino-1-ethyl-3,3,5,5-tetramethylcyclohexane] showed a pIC50 (NMDA receptor [3]) of 4.62, a selectivity ratio [1] of 0.6 and a selectivity ratio ([2]; rotarod versus mes) of 0.9. For the same compound, the “Min Lethality” value [4] was 50 mg/kg.
With `CCCC1(N)CC(C)(C)CC(C)(C)C1` [Mrz 2/601, 1-amino-1-propyl-3,3,5,5-tetramethylcyclohexane] the “MES ED50” value [5] was 15.6 mg/kg i.p, the selectivity ratio [1] was 1.5 and the selectivity ratio ([2]; in vivo) was 1.5. The “Min Lethality” value [4] was 50 mg/kg.
For `CCCC1(C)CC(C)(C)CC(C)(N)C1` (centres unmarked) [Mrz 2/614], the “TI Tract. (ED50 traction reflex impairment / ED50 MES)” value (traction reflex in mice) was 1.9.
With `CCC1(C)CC(C)(C)CC(C)(N)C1` (centres unmarked) [Mrz 2/615, 1-amino-1,3,5,5-tetramethyl-3-ethylcyclohexane] the selectivity ratio [1] was 2.5, the selectivity ratio ([2]; rotarod versus mes) was 3.2 and the “Min Lethality” value [4] was 50 mg/kg.
For `CCCC1(C)CCCC(C)(N)C1` (centres unmarked) [Mrz 2/617], the “TI Tract. (ED50 traction reflex impairment / ED50 MES)” value (traction reflex in mice) was 1.1.
With `CCC1(C)CCCC(C)(N)C1` (centres unmarked) [Mrz 2/620] the “TI Tract. (ED50 traction reflex impairment / ED50 MES)” value (traction reflex in mice) was 1.6 and the selectivity ratio ([2]; rotarod versus mes) was 1.1.
For `CCC1(CC)CC(C)(C)CC(C)(N)C1` (centres unmarked) [Mrz 2/623, 1-amino-1,5,5-trimethyl-3,3-diethylcyclohexane], the selectivity ratio [1] was 1.4, the selectivity ratio ([2]; rotarod versus mes) was 1.8 and the “Min Lethality” value [4] was over 30 mg/kg.
In the case of `CCCC1(CCC)CC(C)(C)CC(C)(N)C1` (centres unmarked) [Mrz 2/626], the “TI Tract. (ED50 traction reflex impairment / ED50 MES)” value (traction reflex in mice) was 1.1.
With `CCNC1(C)CC(C)(C)CC(C)(C)C1` [Mrz 2/639, N-ethyl-1-amino-1,3,3,5,5-pentamethylcyclohexane] the selectivity ratio [1] was 2.6, the selectivity ratio ([2]; rotarod versus mes) was 4.4 and the “Min Lethality” value [4] was 30 mg/kg.
For `CNC1(C)CC(C)(C)CC(C)(C)C1.Cl` [Mrz 2/640, N,1,3,3,5,5-hexamethylcyclohexanamine hydrochloride], the selectivity ratio [1] was 2.3, the selectivity ratio ([2]; rotarod versus mes) was 3.3 and the “Min Lethality” value [4] was 108 mg/kg.
In the case of `CC1(N)CCCCC1` [Mrz 2/641], the “Min Lethality” value [4] was over 50 mg/kg.
With `CN(C)C1(C)CC(C)(C)CC(C)(C)C1` [Mrz 2/642] the “MES ED50” value [5] was 8.04 mg/kg i.p, the selectivity ratio [1] was 4.1 and the selectivity ratio ([2]; in vivo) was 5.3.
Work on `CC1(C)CC(CCN)CC(C)(C)C1` [Mrz 2/644] yielded a selectivity ratio [1] of 0.5 and a selectivity ratio ([2]; rotarod versus mes) of 0.6.
With `CC(C)(N)CC1CC(C)(C)CC(C)(C)C1` [Mrz 2/645] the “TI Tract. (ED50 traction reflex impairment / ED50 MES)” value (traction reflex in mice) was 0.6.
Work on `CC1(C)CC(C)(C)CC(C)(CCN)C1` [Mrz 2/662] yielded a selectivity ratio [1] of 1 and a selectivity ratio ([2]; rotarod versus mes) of 1.2.
